From patent US9958433B2, “Method and system for in vitro developmental toxicity testing” (Agency for Science, Technology and Research, priority 2012, dated 2018)
Where two headings read alike, the source gives them in different places.

Assays:
[1] = system: micropatterned hESC colonies; assay: Micropatterned hESC mesoendoderm pattern disruption (Brachyury immunofluorescence, Asymmetrical Ratio); conditions: for Asymmetrical Ratio decrease relative to untreated control: 3 days of differentiation, control ratio 3; for Asymmetrical Ratio after treatment (average intensity ratio of ring area to off-ring area): human, 3 days
Description: In order to generate gradients of mechanical stress, circle or square shapes of Matrigel matrix with two different sizes (785000 μm2 or 196250 μm2) were designed using AutoCAD software. Then polydimethylsiloxane (PDMS) stencils were fabricated by using a laser-cutter (Universal Laser System) to cut the designated shape patterns on a 127 μm thick PDMS sheet (Specialty Silicone Products Inc.) and then bonding it to a laser-cut, 2 mm thick PDMS gasket. For cell patterning, the PDMS stencil was first sealed into a 60 mm petri dish by adding 200 μl 70% ethanol and dried in the tissue culture hood, then Matrigel™ (BD Biosciences) matrix was coated by at least hour incubation with the Matrigel™ solution (FIG. 1). Thereafter cells were seeded at a density of 4 million cells/ml. After 1 hour incubation for cell attachment, the stencil and excess unattached cells were removed. The surface was then passivated with 0.5% pluronic acid for 10 mins before 3-time washing. The acquired patterned hESC were incubated overnight in mTesR1 maintenance medium (StemCell Technologies) for stabilization and the mesoendoderm induction was started the next day.
The differentiation of patterned hESC colonies were induced by mesoendoderm induction medium, which comprises of 100 ng/ml Activin, 25 ng/ml BMP4 and 10 ng/ml FGF2 in basal serum-free APEL™ medium (STEMdiff™, StemCell Technologies). For developmental toxicity testing, the patterned hESC colonies were cultured in mesoendoderm induction medium together with the test chemical. The induction lasted 3 days and the medium is half changed daily with/without the test chemical.
Samples were fixed on Day 3 of differentiation. Immunofluorescence staining was done to check the expression distribution of early mesoendodermal marker Brachyury. Image acquisition was done under 10× objective using Olympus fluorescence microscope and Asymmetrical Ratio was calculated using MATLAB programming (FIG. 5). Results
Three known teratogens (0.1 mM Valproic acid (VPA), 0.05 ug/ml 5-Fluorouracil (5-FU), and 0.8 mM Thalidomide) were tested using this model. Mesoendoderm induction medium together with the drug was added into our model and incubated for 3 days before the samples were fixed for immunofluorescence staining of Brachyury. Half of the medium was changed daily with the drug. An untreated control which was only cultured in mesoendoderm induction medium without any drug was also done. […] In order to measure the disruption, we used Asymmetrical Ratio as a parameter to evaluate the asymmetrical patterns with or without drug treatment, which indicate the average intensity ratio of “ring” area to “off-ring” area (FIG. 5).

μP-hESC colony = assay: Live imaging / kymograph of collective cell migration in μP-hESC colony under drug treatment; type: cell-based, human
Description: Spatially localized differentiated cells (at edge of stem cell colony) underwent coordinated cell movement to form a 3D-like structural motif as observed by live imaging (FIG. 8D). The trajectory of the coordinated cell movement can be seen from a space-time plot (kymograph) of the differentiating stem cells (FIG. 8E).

μP-hESC colonies = assay: PCA of morphological features of mesoendoderm motif in μP-hESC colonies (dose-dependent developmental toxicity)
Experimental: Alterations to the different morphological features of the mesoendoderm structural motif were quantitatively measured by image processing at different concentrations of drugs. These morphological features at different drug concentrations were analyzed with principal component analysis (PCA). A data point represents each morphological feature; the data point color represents the drug concentration used in the treatment. […] Data Collection Process: 1. Treat our μP-hESC colonies with 3 different concentrations of each drug and fix the samples on day 3 together with the untreated normal control samples. Acquire T immunofluorescence images of samples under Olympus fluorescence microscope. 2. Process all the T fluorescence images using Matlab to extract all the relevant morphological features of the samples representing the spatial distribution of the mesoendoderm motif (T^+ positive region in the images).

[2] = system: adult human dermal fibroblasts (aHDFs); assay: Cytotoxicity test (MTS) on adult fibroblasts; conditions: at the drug's effective concentration (EC)
hESC cell line H9 [3] = assay: Cytotoxicity test (MTS) on hESC; conditions: at the drug's effective concentration (EC)
human = conditions: cited from earlier work
[4] = system: adult human dermal fibroblasts (aHDFs)
hESC cell line H9 [5] = system: hESC cell line H9

SMILES | Toxicity to aHDFs [2] | Toxicity to H9 cells (hESC cell line H9 [3]) | Drug classification by developmental toxicity effect (μP-hESC colonies) | Concentrations at which spatial distribution of mesoendoderm motif was significantly disrupted (PCA) (μP-hESC colonies; human, 3 days) | Effective concentration (lowest concentration which significantly disrupted spatial localization of mesoendoderm motif) (μP-hESC colonies; human, 3 days) | Localization of the mesoendoderm motif (T+ region) [1] | Trajectories of collective cell migration (kymograph) (μP-hESC colony) | also measured
O=c1[nH]cc(F)c(=O)[nH]1 [5-FU, 5-Fluorouracil] |  |  |  |  |  |  |  | Asymmetrical Ratio decrease relative to untreated control ([1]; 0.05 μg/ml 5-FU): 46.7%; Asymmetrical Ratio after treatment (average intensity ratio of ring area to off-ring area) ([1]; 0.05 μg/ml): 1.6
CC1(C)S[C@@H]2[C@H](NC(=O)Cc3ccccc3)C(=O)N2[C@H]1C(=O)O [Penicillin G] |  |  |  |  |  |  |  | Localization of the mesoendoderm motif (T+ region) ([1]; day3, FIG. 9B): remained unchanged; Trajectories of collective cell migration (kymograph) (μP-hESC colony; day2-3 of differentiation): unaffected; PCA clustering of morphological features by drug concentration (μP-hESC colonies; 3 concentrations of each drug, day 3): cannot be segregated; Drug classification by developmental toxicity effect (μP-hESC colonies; based on PCA and cytotoxicity test (MTS) results): non-developmental toxic; Concentrations at which spatial distribution of mesoendoderm motif was significantly disrupted (PCA) (μP-hESC colonies; day 3, μP-hESC colonies): > 1000 µg/mL; Effective concentration (lowest concentration which significantly disrupted spatial localization of mesoendoderm motif) (μP-hESC colonies; μP-hESC models): above 1000 μg/ml
CC1=C(/C=C/C(C)=C/C=C/C(C)=C/C(=O)O)C(C)(C)CCC1 [RA, retinoic acid] | not toxic | not toxic | teratogenic | >= 0.0036 μg/ml | ~0.0036 µg/mL |  |  | 
O=C1CCC(N2C(=O)c3ccccc3C2=O)C(=O)N1 (stereo not shown) [Thalidomide] | not toxic | toxic | both teratogenic and embryotoxic | >= 300 μM | ~300 µM | misplaced | disrupted | Asymmetrical Ratio decrease relative to untreated control ([1]; 0.8 mM Thalidomide): ~70%; Asymmetrical Ratio after treatment (average intensity ratio of ring area to off-ring area) ([1]; 0.8 mM): ~0.9; H9 cell survival (hESC cell line H9 [3]): > 50%; Developmental deformation (human): causes developmental deformation in human
CCCC(CCC)C(=O)O [VPA, Valproic acid] |  |  | very embryotoxic | >= 0.8 mM | ~800 µM | misplaced | disrupted | Asymmetrical Ratio decrease relative to untreated control ([1]; 0.1 mM VPA): ~70%; Asymmetrical Ratio after treatment (average intensity ratio of ring area to off-ring area) ([1]; 0.1 mM): ~0.9; Toxicity to aHDFs [4]: a little toxic; Toxicity to H9 cells (hESC cell line H9 [5]): very toxic; H9 cell survival (hESC cell line H9 [5]; human): ~20%
